{
  "source": "a compilation of properties of binary mixtures (doi:10.1007/s11814-009-0129-3)",
  "test": "xn = mol fraction of the nth substance listed",
  "settings": "101 kPa",
  "data": [
    {"compound": "F[B-](F)(F)F.[Li+]", "note": "+ CCCC[n+]1ccn(C)c1.[I-]", "values": [
      {"measurement": "electrical conductivity", "setting": "298.15 K, x1 = 0.1", "result": 0.0385, "unit": "S/m"},
      {"measurement": "electrical conductivity", "setting": "298.15 K, x1 = 0.3", "result": 0.042, "unit": "S/m"},
      {"measurement": "electrical conductivity", "setting": "298.15 K, x1 = 0.4", "result": 0.035, "unit": "S/m"},
      {"measurement": "electrical conductivity", "setting": "298.15 K, x1 = 0.5", "result": 0.0312, "unit": "S/m"},
      {"measurement": "electrical conductivity", "setting": "303.15 K, x1 = 0.1", "result": 0.0432, "unit": "S/m"},
      {"measurement": "electrical conductivity", "setting": "303.15 K, x1 = 0.2", "result": 0.0477, "unit": "S/m"},
      {"measurement": "electrical conductivity", "setting": "303.15 K, x1 = 0.3", "result": 0.0488, "unit": "S/m"},
      {"measurement": "electrical conductivity", "setting": "303.15 K, x1 = 0.4", "result": 0.0392, "unit": "S/m"},
      {"measurement": "electrical conductivity", "setting": "303.15 K, x1 = 0.5", "result": 0.0373, "unit": "S/m"},
      {"measurement": "electrical conductivity", "setting": "308.15 K, x1 = 0.2", "result": 0.0515, "unit": "S/m"},
      {"measurement": "electrical conductivity", "setting": "308.15 K, x1 = 0.3", "result": 0.0505, "unit": "S/m"},
      {"measurement": "electrical conductivity", "setting": "308.15 K, x1 = 0.4", "result": 0.0461, "unit": "S/m"},
      {"measurement": "electrical conductivity", "setting": "308.15 K, x1 = 0.5", "result": 0.0425, "unit": "S/m"},
      {"measurement": "electrical conductivity", "setting": "313.15 K, x1 = 0.1", "result": 0.0519, "unit": "S/m"},
      {"measurement": "electrical conductivity", "setting": "313.15 K, x1 = 0.2", "result": 0.0584, "unit": "S/m"},
      {"measurement": "electrical conductivity", "setting": "313.15 K, x1 = 0.3", "result": 0.0512, "unit": "S/m"},
      {"measurement": "electrical conductivity", "setting": "313.15 K, x1 = 0.4", "result": 0.0477, "unit": "S/m"},
      {"measurement": "electrical conductivity", "setting": "313.15 K, x1 = 0.5", "result": 0.0463, "unit": "S/m"},
      {"measurement": "electrical conductivity", "setting": "318.15 K, x1 = 0.1", "result": 0.0577, "unit": "S/m"},
      {"measurement": "electrical conductivity", "setting": "318.15 K, x1 = 0.2", "result": 0.0704, "unit": "S/m"},
      {"measurement": "electrical conductivity", "setting": "318.15 K, x1 = 0.3", "result": 0.0597, "unit": "S/m"},
      {"measurement": "electrical conductivity", "setting": "318.15 K, x1 = 0.4", "result": 0.0513, "unit": "S/m"},
      {"measurement": "electrical conductivity", "setting": "318.15 K, x1 = 0.5", "result": 0.0501, "unit": "S/m"},
      {"measurement": "electrical conductivity", "setting": "323.15 K, x1 = 0.1", "result": 0.0647, "unit": "S/m"},
      {"measurement": "electrical conductivity", "setting": "323.15 K, x1 = 0.3", "result": 0.088, "unit": "S/m"},
      {"measurement": "electrical conductivity", "setting": "323.15 K, x1 = 0.4", "result": 0.0554, "unit": "S/m"},
      {"measurement": "electrical conductivity", "setting": "323.15 K, x1 = 0.5", "result": 0.0549, "unit": "S/m"}
    ]},
    {"compound": "CCCC[n+]1ccn(C)c1.[I-]", "note": "+ [Li+].[B-](F)(F)(F)F", "values": [
      {"measurement": "electrical conductivity", "setting": "298.15 K, x2 = 0", "result": 0.0234, "unit": "S/m"},
      {"measurement": "electrical conductivity", "setting": "303.15 K, x2 = 0", "result": 0.0262, "unit": "S/m"},
      {"measurement": "electrical conductivity", "setting": "313.15 K, x2 = 0", "result": 0.0308, "unit": "S/m"},
      {"measurement": "electrical conductivity", "setting": "318.15 K, x2 = 0", "result": 0.0326, "unit": "S/m"},
      {"measurement": "electrical conductivity", "setting": "323.15 K, x2 = 0", "result": 0.0345, "unit": "S/m"}
    ]}
  ]
}
